Experimental data reported in patent publication US20250152535A1, “COMPOSITION FOR PREVENTING OR IMPROVING HEPATIC DYSFUNCTION” (KYOWA HAKKO BIO CO., LTD., priority 2022, published 2025).

Legend:
[1] = system: ICR mice; assay: Carbon tetrachloride (CCl4)-induced hepatic dysfunction model in mice, blood plasma AST and ALT levels; format: in vivo; settings: male ICR mice; 400 mg/kg/day once-daily oral for three days, then CCl4 0.04 mL/kg i.p.; blood 16 hours after CCl4; compared with group 2 (vehicle+CCl4)
Description: GSSSG dihydrate prepared by the method described in Patent Literature 1 was crushed in a mortar. To 10 mL of distilled water, the crushed GSSSG dihydrate (200 mg in terms of anhydride) was added and suspended. Then, twice as much sodium hydrogen carbonate as the GSSSG anhydride was added thereto on a molar basis, and the resultant mixture was mixed for 10 minutes. The obtained GSSSG solution was further diluted with distilled water to obtain administration samples 3 and 4. In addition, reduced glutathione (GSH) or oxidized glutathione (GSSG), manufactured by KYOWA HAKKO BIO Co., Ltd., was dissolved in distilled water to obtain each of administration samples 1 and 2.
Four-week-old male ICR mice (Charles River Laboratories Japan, Inc.) were acclimated for 1 week and then subjected to a test at 5 weeks of age. During the test period, the mice were allowed to freely drink water regarding water, allowed to freely ingest a solid feed CE-2 (CLEA Japan, Inc.), and kept at a temperature of 20° C. to 24° C., a humidity of 50% to 60%, and for 12 hours of light-dark cycle. Thereafter, the mice were divided into groups 1 to 6 so that each group included 3 or 4 mice. • Group 1: Normal (vehicle-no symptoms induced) • Group 2: Vehicle+CCl4 • Group 3: GSH 400 mg/kg/day (administration sample 1)+CCl4 • Group 4: GSSG 400 mg/kg/day (administration sample 2)+CCl4 • Group 5: GSSSG 100 mg/kg/day (administration sample 3)+CCl4
Group 6: GSSSG 400 mg/kg/day (administration sample 4)+CCl4
After the group dividing, the vehicle, the administration sample 1, the administration sample 2, the administration sample 3, or the administration sample 4 was subjected to an once-daily forced oral administration at the above-described dose for a total of three consecutive days. After 30 minutes from the final oral administration, CCl4 (0.04 mL/kg) suspended in olive oil was intraperitoneally administered to induce hepatic dysfunction.

[2] = system: HepG2 cells; assay: Protective effect against hepatocellular damage by hydrogen peroxide in HepG2 cells, cell survival rate by MTT assay; format: cell-based, human; settings: for Cell survival rate (%): then 0.1 mM hydrogen peroxide for 2 hours, control group = 100; for cell survival rate as compared with the solvent addition group: sample added before 0.1 mM hydrogen peroxide
Description: A human hepatoma-derived cell line (HepG2: HB-8065™, Lot number: 70029112) was obtained from American Type Culture Collection, and Dulbecco's Modified Eagle Medium containing 10% FBS (Thermo Fisher Scientific, Inc.) was used as a basal medium. Cells were cultured in an incubator of 37° C. and 5% CO2, and the cells that had been passaged to 16 to 25 generations were subjected to experimentation. The used GSSG and GSSSG were those manufactured by KYOWA HAKKO BIO Co., Ltd.
0.15 mL of a cell suspension obtained by adjusting the initial cell concentration to 2×10^4 cells/mL was seeded in a 96-well plate (Thermo Fisher Scientific, Inc.).
After the culturing for 4 hours from the seeding, GSSSG (for the addition group of the final concentration of 0.05 mM and the addition group of the final concentration of 0.1 mM) was added to the culture medium. In addition, apart from this, a group in which only the solvent of GSSSG (PBS in which sodium hydrogen carbonate was dissolved so that the concentration thereof was 15.8 mM) was added was defined as a solvent addition group. After the culturing for 20 hours from the sample addition, the culture medium was replaced with a culture medium (not containing GSSSG) obtained by adding hydrogen peroxide solution (FUJIFILM Wako Pure Chemical Corporation) to the above-described sample addition group and the solvent addition group so that the final concentration thereof was 0.1 mM, and then hepatocellular damage was induced. The control group was the group in which the same amount of PBS was added to the solvent addition group instead of hydrogen peroxide solution. After the culturing for 2 hours from the addition of hydrogen peroxide solution or PBS, the cell survival rate was measured according to the MTT assay, and the degree of hepatocellular damage was evaluated. For GSSG as well, an experiment was carried out in the same manner as in the GSSSG, except that PBS was used as a solvent.

| Compound | blood plasma ALT level [1] | blood plasma AST level [1] | Cell survival rate (%) ([2]; sample 0.05 mM for 20 hours) | Cell survival rate (%) ([2]; sample 0.1 mM for 20 hours) | cell survival rate as compared with the solvent addition group [2] |
| --- | --- | --- | --- | --- | --- |
| N[C@@H](CCC(=O)N[C@@H](CS)C(=O)NCC(=O)O)C(=O)O [GSH, reduced glutathione] | significant suppression | significant suppression |  |  |  |
| N[C@@H](CCC(=O)N[C@@H](CSSSC[C@H](NC(=O)CC[C@H](N)C(=O)O)C(=O)NCC(=O)O)C(=O)NCC(=O)O)C(=O)O [GSSSG, glutathione trisulfide] | tendency of the suppression | tendency of the suppression | 36.9% | 49.7% | improved survival rate |
| oxidized glutathione [GSSG] | significant suppression | significant suppression | 39.4% | 38.4% | significantly decreased |
